Target: T1, CYP11A1 (Homo sapiens, UniProt P05108)
T1 construct: human H295R adrenocortical carcinoma cell line was used as source of enzyme; endogenous in cells; host or cells: H295R human adrenocortical carcinoma cells
T1 sequence (P05108 40-521): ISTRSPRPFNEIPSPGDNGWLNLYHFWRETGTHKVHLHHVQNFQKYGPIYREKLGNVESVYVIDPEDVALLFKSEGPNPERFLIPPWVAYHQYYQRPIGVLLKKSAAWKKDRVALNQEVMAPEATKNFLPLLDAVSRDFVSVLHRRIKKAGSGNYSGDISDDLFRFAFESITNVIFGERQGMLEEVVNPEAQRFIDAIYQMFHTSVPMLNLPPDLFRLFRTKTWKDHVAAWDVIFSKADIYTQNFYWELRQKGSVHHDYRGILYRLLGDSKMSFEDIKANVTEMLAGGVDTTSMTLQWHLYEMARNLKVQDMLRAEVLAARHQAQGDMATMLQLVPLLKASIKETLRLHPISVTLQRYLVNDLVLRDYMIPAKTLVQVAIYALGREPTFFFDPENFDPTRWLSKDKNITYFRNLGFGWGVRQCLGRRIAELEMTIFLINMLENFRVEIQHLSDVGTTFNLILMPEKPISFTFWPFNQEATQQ
Test: CYP11A1 inhibition: modified isocaproic acid release assay (IARA) in H295R cells
Format: cell-based
Settings: human H295R adrenocortical carcinoma cells treated three days, 3 nM [24,25-3H]-labelled cholesterol, 1% DMSO, 10 concentrations in duplicates; read-out: IC50 of the test compounds on CYP11A1 inhibition
Summary of the method: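 H295R adrenocortical cells treated three days with test compounds at 10 concentrations in duplicate plus 3 nM [24,25-3H]-cholesterol, 1% DMSO final. Released radiolabelled isocaproic acid measured by scintillation counting after dextran-coated charcoal extraction; IC50 determined.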

Compound | IC50 [nM]
CC1c2ccccc2CCN1Cc1cc(=O)c(OCc2ccc(C(=O)N3CCCC3)cc2)co1 (stereo not shown) [Compound 125, 2-((1-Methyl-3,4-dihydroisoquinolin-2(1H)-yl)methyl)-5-((4-(pyrrolidine-1-carbonyl)benzyl)oxy)-4H-pyran-4-one] | 301 to 2000
CCN(CC)C(=O)c1ccc(COc2coc(CN3Cc4ccccc4C3)cc2=O)cc1 [Compound 126, N,N-Diethyl-4-(((6-(isoindolin-2-ylmethyl)-4-oxo-4H-pyran-3-yl)oxy)methyl)-benzamide] | 150 to 300
CN(C)C(=O)c1ccc(COc2coc(CN3Cc4ccc(F)cc4C3)cc2=O)cc1 [Compound 127, 4-(((6-((5-Fluoroisoindolin-2-yl)methyl)-4-oxo-4H-pyran-3-yl)oxy)methyl)-N,N-dimethylbenzamide] | 150 to 300
O=C(c1ccc(COc2coc(CN3Cc4ccccc4C3)cc2=O)cc1)N1CCCCC1 [Compound 128, 2-(Isoindolin-2-ylmethyl)-5-((4-(piperidine-1-carbonyl)benzyl)oxy)-4H-pyran-4-one] | 150 to 300
O=C(c1ccc(COc2coc(CN3Cc4ccccc4C3)cc2=O)cc1)N1CCC1 [Compound 129, 5-((4-(Azetidine-1-carbonyl)benzyl)oxy)-2-(isoindolin-2-ylmethyl)-4H-pyran-4-one] | < 150
O=C(c1ccc(COc2coc(CN3Cc4ccc(Br)cc4C3)cc2=O)cc1)N1CCCC1 [Compound 130, 2-((5-Bromoisoindolin-2-yl)methyl)-5-((4-(pyrrolidine-1-carbonyl)benzyl)oxy)-4H-pyran-4-one] | < 150
CC(C)(C)NC(=O)c1ccc(COc2coc(CN3Cc4ccccc4C3)cc2=O)cc1 [Compound 131, N-(tert-Butyl)-4-(((6-(isoindolin-2-ylmethyl)-4-oxo-4H-pyran-3-yl)oxy)methyl)-benzamide] | < 150
C[C@H]1c2ccccc2CN1Cc1cc(=O)c(OCc2ccc(C(=O)N(C)C)cc2)co1 [Compound 132, (S)—N,N-Dimethyl-4-(((6-((1-methylisoindolin-2-yl)methyl)-4-oxo-4H-pyran-3-yl)oxy)methyl)benzamide] | 301 to 2000
C[C@@H]1c2ccccc2CN1Cc1cc(=O)c(OCc2ccc(C(=O)N(C)C)cc2)co1 [Compound 133, (R)—N,N-Dimethyl-4-(((6-((1-methylisoindolin-2-yl)methyl)-4-oxo-4H-pyran-3-yl)oxy)methyl)benzamide] | 301 to 2000
CC(C)N(C(=O)c1ccc(COc2coc(CN3Cc4ccccc4C3)cc2=O)cc1)C(C)C [Compound 134] | < 150
CC(C)(C)NC(=O)c1ccc(COc2coc(CN3CCc4ccccc4C3)cc2=O)cc1 [Compound 135, N-(tert-Butyl)-4-(((6-((3,4-dihydroisoquinolin-2(1H)-yl)methyl)-4-oxo-4H-pyran-3-yl)oxy)methyl)benzamide] | 150 to 300
CN(C)C(=O)Cc1ccc(COc2coc(CN3Cc4ccccc4C3)cc2=O)cc1 [Compound 136, 2-(4-(((6-(Isoindolin-2-ylmethyl)-4-oxo-4H-pyran-3-yl)oxy)methyl)phenyl)-N,N-dimethylacetamide] | 150 to 300
CN(C)C(=O)c1ccc(COc2coc(CN3Cc4ccc(Cl)cc4C3)cc2=O)cc1 [Compound 137, 4-(((6-((5-Chloroisoindolin-2-yl)methyl)-4-oxo-4H-pyran-3-yl)oxy)methyl)-N,N-dimethylbenzamide] | < 150
COc1ccc2c(c1)CN(Cc1cc(=O)c(OCc3ccc(C(=O)N(C)C)cc3)co1)C2 [Compound 138, 4-(((6-((5-Methoxyisoindolin-2-yl)methyl)-4-oxo-4H-pyran-3-yl)oxy)methyl)-N,N-dimethylbenzamide] | < 150
CN(C)C(=O)c1ccc(COc2coc(CN3Cc4ccc(C(F)(F)F)cc4C3)cc2=O)cc1 [Compound 139, N,N-Dimethyl-4-(((4-oxo-6-((5-(trifluoromethyl)isoindolin-2-yl)methyl)-4H-pyran-3-yl)oxy)methyl)benzamide] | < 150
CC(C)NC(=O)c1ccc(COc2coc(CN3Cc4ccccc4C3)cc2=O)cc1 [Compound 140, 4-(((6-(Isoindolin-2-ylmethyl)-4-oxo-4H-pyran-3-yl)oxy)methyl)-N-isopropylbenzamide] | 150 to 300
C#CCNC(=O)c1ccc(COc2coc(CN3Cc4ccccc4C3)cc2=O)cc1 [Compound 141, 4-(((6-(Isoindolin-2-ylmethyl)-4-oxo-4H-pyran-3-yl)oxy)methyl)-N-(prop-2-yn-1-yl)benzamide] | 301 to 2000

Compound | IC50 [nM]
CCCCCCNC(=O)c1ccc(COc2coc(CN3Cc4ccccc4C3)cc2=O)cc1 [Compound 142, N-Hexyl-4-(((6-(isoindolin-2-ylmethyl)-4-oxo-4H-pyran-3-yl)oxy)methyl)-benzamide] | 150 to 300
CC(=O)OCC(C)(C)NC(=O)c1ccc(COc2coc(CN3Cc4ccccc4C3)cc2=O)cc1 [Compound 143, 2-(4-(((6-(Isoindolin-2-ylmethyl)-4-oxo-4H-pyran-3-yl)oxy)methyl)benzamido)-2-methylpropyl acetate] | 150 to 300
C=Cc1ccc(COc2coc(CN3Cc4ccccc4C3)cc2=O)cc1 [Compound 144, 2-(Isoindolin-2-ylmethyl)-5-((4-vinylbenzyl)oxy)-4H-pyran-4-one] | 301 to 2000
O=C(NCCCCO)c1ccc(COc2coc(CN3Cc4ccccc4C3)cc2=O)cc1 [Compound 145, N-(4-Hydroxybutyl)-4-(((6-(isoindolin-2-ylmethyl)-4-oxo-4H-pyran-3-yl)oxy)-methyl)benzamide] | 301 to 2000
CN(C)C(=O)/C=C/c1ccc(COc2coc(CN3Cc4ccccc4C3)cc2=O)cc1 [Compound 146, (E)-3-(4-(((6-(Isoindolin-2-ylmethyl)-4-oxo-4H-pyran-3-yl)oxy)methyl)phenyl)-N,N-dimethylacrylamide] | < 150
CNC(=O)/C=C/c1ccc(COc2coc(CN3CCc4ccccc4C3)cc2=O)cc1 [Compound 148, (E)-3-(4-(((6-((3,4-Dihydroisoquinolin-2(1H)-yl)methyl)-4-oxo-4H-pyran-3-yl)oxy)methyl)phenyl)-N-methylacrylamide] | 301 to 2000
O=C(c1ccc(COc2coc(CN3CCc4ccccc4C3)cc2=O)cc1)N1CCCC(O)C1 (stereo not shown) [Compound 149, 2-((3,4-Dihydroisoquinolin-2(1H)-yl)methyl)-5-((4-(3-hydroxypiperidine-1-carbonyl)benzyl)oxy)-4H-pyran-4-one] | 301 to 2000
O=C(c1ccc(COc2coc(CN3Cc4ccc(F)cc4C3)cc2=O)cc1)N1CCC1 [Compound 150, 5-((4-(Azetidine-1-carbonyl)benzyl)oxy)-2-((5-fluoroisoindolin-2-yl)methyl)-4H-pyran-4-one] | 301 to 2000
CC(C)(CO)CNC(=O)c1ccc(COc2coc(CN3Cc4ccccc4C3)cc2=O)cc1 [Compound 151, N-(3-Hydroxy-2,2-dimethylpropyl)-4-(((6-(isoindolin-2-ylmethyl)-4-oxo-4H-pyran-3-yl)oxy)methyl)benzamide] | 301 to 2000
O=C(c1ccc(COc2coc(CN3Cc4ccccc4C3)cc2=O)cc1)N1CCC(O)CC1 [Compound 152, 5-((4-(4-Hydroxypiperidine-1-carbonyl)benzyl)oxy)-2-(isoindolin-2-ylmethyl)-4H-pyran-4-one] | 301 to 2000
O=C(COc1coc(CN2Cc3ccccc3C2)cc1=O)N1CCN(Cc2ccccc2)CC1 [Compound 153, 5-(2-(4-Benzylpiperazin-1-yl)-2-oxoethoxy)-2-(isoindolin-2-ylmethyl)-4H-pyran-4-one] | 301 to 2000
O=C(COc1coc(CN2Cc3ccccc3C2)cc1=O)N1CCN(c2ccc(Cl)cc2)CC1 [Compound 154, 5-(2-(4-(4-Chlorophenyl)piperazin-1-yl)-2-oxoethoxy)-2-(isoindolin-2-ylmethyl)-4H-pyran-4-one] | 301 to 2000
O=C(COc1coc(CN2Cc3ccccc3C2)cc1=O)N1CCC(Cc2ccccc2)CC1 [Compound 155, 5-(2-(4-Benzylpiperidin-1-yl)-2-oxoethoxy)-2-(isoindolin-2-ylmethyl)-4H-pyran-4-one] | 301 to 2000
O=C(COc1coc(CN2Cc3ccccc3C2)cc1=O)N1CCN(S(=O)(=O)c2ccccc2)CC1 [Compound 156, 2-(Isoindolin-2-ylmethyl)-5-(2-oxo-2-(4-(phenylsulfonyl)piperazin-1-yl)ethoxy)-4H-pyran-4-one] | 301 to 2000
Cc1ccc(S(=O)(=O)N2CCN(C(=O)COc3coc(CN4Cc5ccccc5C4)cc3=O)CC2)cc1 [Compound 157, 2-(Isoindolin-2-ylmethyl)-5-(2-oxo-2-(4-tosylpiperazin-1-yl)ethoxy)-4H-pyran-4-one] | 301 to 2000
O=C(c1ccc(COc2coc(CN3Cc4ccccc4C3)cc2=O)cc1)N1CC(F)(F)C1 [Compound 158, 5-((4-(3,3-Difluoroazetidine-1-carbonyl)benzyl)oxy)-2-(isoindolin-2-ylmethyl)-4H-pyran-4-one] | 150 to 300
COCc1cccnc1N1CCN(C(=O)COc2coc(CN3Cc4ccccc4C3)cc2=O)CC1 [Compound 159, 2-(Isoindolin-2-ylmethyl)-5-(2-(4-(3-(methoxymethyl)pyridin-2-yl)piperazin-1-yl)-2-oxoethoxy)-4H-pyran-4-one] | 301 to 2000

Source: patent US11098032B2, “Pyran dervatives as CYP11A1 (cytochrome P450 monooxygenase 11A1) inhibitors” (ORION CORPORATION, priority 2016, dated 2021)
